From PMC11091889, “Silver Organometallics that are Highly Potent Thioredoxin and Glutathione Reductase Inhibitors: Exploring the Correlations of Solution Chemistry with the Strong Antibacterial Effects” (ACS Infectious Diseases, 2024)
Read-outs that look alike come from different tables or passages of the source.

Tests used:
[1] = system: P. aeruginosa PA7 (DSM 24068); assay: microbe, parasite or virus in culture; assay type: cell-based, Pseudomonas aeruginosa; conditions: for MIC: DSM24068, 22 h
Description: (§1) The antibacterial effect of the silver NHC complexes and selected ligands was evaluated in two Gram-positive [Enterococcus faecium, methicillin resistant S. aureus, (MRSA)] and in four Gram-negative (Acinetobacter baumannii, Escherichia coli, Klebsiella pneumoniae, and Pseudomonas aeruginosa) pathogenic bacterial strains using broth microdilution assays. The resulting minimal inhibitory concentrations (MICs, Table 2) and EC50 (Table S6) were determined by a curve fitting procedure. Silver nitrate (AgNO3), SSD, and various antibiotics were used as references.
(§2) The following strains of ESKAPE panel were utilized and maintained at 37 °C in MHB (21 g/L Müller Hinton broth, pH 7.4) or TSY (30 g/L trypticase soy broth, 3 g/L yeast extract, pH 7.0–7.2) media: A. baumannii (DSM 30007, ATCC 19606), E. coli (DSM1116, ATCC 9637), K. pneumoniae (DSM 11678, ATCC33495), P. aeruginosa PA7 (DSM 24068) in MHB; E. faecium (DSM 20477, ATCC 19434), and S. aureus MRSA (DSM 11822, ICB 25701) in TSY. MIC values were determined following a standardized protocol in broth microdilution assays. The compounds and reference substances (AgNO3 and SSD) were serially diluted from 64 to 1 μg/mL. Starting inocula of 2–8 × 10^5 CFU/mL in MHB or TSY media at 37 °C were used, and serial dilutions were carried out in 96-well microtiter plates in duplicate. After incubation of the plates for 22 h at 37 °C, the absorbance at 600 nm was measured using The Spark multimode microplate reader (Tecan Trading AG). The MIC values for the tested compounds were determined in three independent experiments and presented in μM with standard errors and also in μg/mL. Amikacin (P. aeruginosa), linezolid (S. aureus), and ciprofloxacin (all other strains) served as positive controls. The MIC and EC50 values were determined by curve fitting with Sigma Plot. To determine the effect of the culture medium on the activity of silver compounds, the assay was performed using MHB, TSY, or DMEM (Gibco). To observe the effect of individual components of TSY medium, antibacterial tests were performed using MHB with addition of tryptone (17 g/L) or yeast extract (3 g/L, both were purchased from Sigma).

[2] = system: A. baumannii (DSM 30007, ATCC 19606); assay: Broth microdilution antibacterial assay; assay type: cell-based, Acinetobacter baumannii; conditions: for EC50: read-out: EC50 A. baumannii
Description: as §1, §2

[3] = system: E. coli (DSM1116, ATCC 9637); assay: microbe, parasite or virus in culture; assay type: cell-based, Escherichia coli
Description: as §1, §2

[4] = system: K. pneumoniae (DSM 11678, ATCC33495); assay: Broth microdilution antibacterial assay; assay type: cell-based, Klebsiella pneumoniae; conditions: for EC50: read-out: EC50 K. pneumoniae
Description: as §1, §2

[5] = system: S. aureus MRSA (DSM 11822, ICB 25701); assay: microbe, parasite or virus in culture; assay type: cell-based, methicillin resistant S. aureus; conditions: for EC50: read-out: EC50 MRSA
Description: as §1
The importance of the culture medium used in antibacterial assays has been pointed out for antibiotics and in particular for silver.[53]−[55] In our recent studies, tryptic soy yeast (TSY) broth has been used for growing Gram-positive bacteria. Two components thereof, tryptone and yeast extract, have been reported to affect the antibacterial activity of silver nitrate.[55] Moreover, such an effect was also observed for other media containing at least one of those components.[11],[53] […] Silver nitrate served as a reference, and three different growth media were studied, namely, Müller-Hinton Broth (MHB, commonly used for Gram-negative bacteria), TSY broth (commonly used for Gram-positive bacteria), and DMEM supplemented with 10% FCS (commonly used for growth of mammalian and human cells).
as §2

[6] = system: E. faecium (DSM 20477, ATCC 19434); assay: Broth microdilution antibacterial assay; assay type: cell-based, Enterococcus faecium
Description: as §1, §2

[7] = Pseudomonas aeruginosa, read-out: MIC P. aeruginosa (value in brackets), n = 3, MHB, 22 h
[8] = Acinetobacter baumannii, 22 h, read-out: MIC A. baumannii
[9] = Acinetobacter baumannii, 22 h, read-out: MIC A. baumannii (value in brackets)
[10] = Escherichia coli, n = 3, MHB, 22 h, read-out: MIC E. coli (value in brackets)
[11] = Klebsiella pneumoniae, 22 h, read-out: MIC K. pneumoniae
[12] = Klebsiella pneumoniae, 22 h, read-out: MIC K. pneumoniae (value in brackets)
[13] = Staphylococcus aureus, 22 h, read-out: MIC MRSA (value in brackets)
[14] = Enterococcus faecium, 22 h, read-out: MIC E. faecium (value in brackets)
[15] = mean ± standard error, n = 3, MHB, 22 h
[16] = mean ± standard error, n = 3, MHB
[17] = mean ± standard error, n = 3, TSY, 22 h

Which results are given for `CC(C)[n+]1cn(Cc2ccccn2)c2ccccc21.[Cl-]` [L3a, 1-Isopropyl-3-(pyridin-2-ylmethyl)-benzimidazolium Chloride]?
MIC [1, 7]: > 128 µg/mL; MIC ([1]; Pseudomonas aeruginosa, read-out: MIC P. aeruginosa, mean ± standard error, n = 3, MHB, 22 h): > 250 µM; EC50 ([1]; Pseudomonas aeruginosa, DSM24068, read-out: EC50 P. aeruginosa, mean ± standard error, n = 3, MHB): > 250 µM; MIC [2, 8]: > 250 µM; MIC [2, 9]: > 128 µg/mL; EC50 ([2]; Acinetobacter baumannii): > 250 µM; EC50 ([3]; Escherichia coli, mean ± standard error, n = 3, MHB): > 250 µM; MIC ([3]; Escherichia coli, mean ± standard error, n = 3, MHB, 22 h, read-out: MIC E. coli): > 250 µM; MIC [3, 10]: > 128 µg/mL; MIC [4, 11]: > 250 µM; MIC [4, 12]: > 128 µg/mL; EC50 ([4]; Klebsiella pneumoniae): > 250 µM; MIC ([5]; Staphylococcus aureus, 22 h, read-out: MIC MRSA): > 250 µM; MIC [5, 13]: > 128 µg/mL; EC50 ([5]; Staphylococcus aureus): > 250 µM; MIC ([6]; Enterococcus faecium, 22 h, read-out: MIC E. faecium): > 250 µM; MIC [6, 14]: > 128 µg/mL; EC50 ([6]; Enterococcus faecium, read-out: EC50 E. faecium, mean ± standard error, n = 3, TSY): > 250 µM

With `O=C(O)c1cn(C2CC2)c2cc(N3CCNCC3)c(F)cc2c1=O` [ciprofloxacin, reference compound] as the molecule, how does the MIC [2, 8] read?
The MIC was 0.63 ± 0.22 µM.

What about the MIC [2, 9] of the same molecule?
The MIC was 0.2 µg/mL.

And the MIC ([3]; Escherichia coli, 22 h, read-out: MIC E. coli)?
Its MIC is 0.5 µM.

And the MIC ([3]; Escherichia coli, 22 h, read-out: MIC E. coli (value in brackets))?
Its MIC is 0.16 µg/mL.

And the MIC ([3]; Escherichia coli, read-out: MIC E. coli DSM 1116 in MHB)?
The MIC was 0.47 µM.

And the MIC ([3]; Escherichia coli, read-out: MIC E. coli DSM 1116 in MHB + tryptone)?
The MIC was 0.47 µM.

What about the MIC ([3]; Escherichia coli, read-out: MIC E. coli DSM 1116 in MHB + yeast extract) of the same molecule?
Its MIC is 0.47 µM.

What about the MIC [4, 11] of the same molecule?
Its MIC is 2.5 ± 0.9 µM.

What about the MIC [4, 12] of the same molecule?
The MIC was 0.8 µg/mL.

What about the MIC ([6]; Enterococcus faecium, 22 h, read-out: MIC E. faecium (value in brackets), n = 3, TSY, 22 h) of the same molecule?
The MIC was 5 µg/mL.

What about the MIC ([6]; Enterococcus faecium, 22 h, read-out: MIC E. faecium, mean ± standard error, n = 3, TSY, 22 h) of the same molecule?
Its MIC is 15.1 ± 1 µM.

Which results are given for `CC(C)[n+]1cn(Cc2ccccn2)c2ccccc21.[I-]` [L3c, 1-Isopropyl-3-(pyridin-2-ylmethyl)-benzimidazolium Iodide]?
MIC [1, 7]: > 128 µg/mL; MIC P. aeruginosa [1, 15]: ≥ 250 µM; EC50 ([1]; read-out: EC50 P. aeruginosa, mean ± standard error, n = 3, MHB): ≥ 250 µM; MIC [2, 9]: > 128 µg/mL; MIC A. baumannii [2, 15]: > 250 µM; EC50 [2, 16]: > 250 µM; MIC [3, 10]: > 128 µg/mL; EC50 [3, 16]: > 250 µM; MIC ([3]; mean ± standard error, n = 3, MHB, 22 h, read-out: MIC E. coli): > 250 µM; MIC [4, 12]: > 128 µg/mL; MIC K. pneumoniae [4, 15]: > 250 µM; EC50 [4, 16]: > 250 µM; MIC [5, 13]: > 128 µg/mL; MIC MRSA [5, 17]: > 250 µM; EC50 ([5]; mean ± standard error, n = 3, TSY): > 250 µM; MIC [6, 14]: > 128 µg/mL; MIC E. faecium [6, 17]: > 250 µM; EC50 ([6]; read-out: EC50 E. faecium, mean ± standard error, n = 3, TSY): > 250 µM

What does the source list for `NCC[C@H](O)C(=O)N[C@@H]1C[C@H](N)[C@@H](O[C@H]2O[C@H](CN)[C@@H](O)[C@H](O)[C@H]2O)[C@H](O)[C@H]1O[C@H]1O[C@H](CO)[C@@H](O)[C@H](N)[C@H]1O` [amikacin, reference compound]?
MIC ([1]; Pseudomonas aeruginosa, read-out: MIC P. aeruginosa): 4.4 ± 1.3 µM; MIC ([1]; Pseudomonas aeruginosa, read-out: MIC P. aeruginosa (value in brackets)): 2.6 µg/mL
